Assay results reported in the kinase profiling compilation of Christmann-Franck et al. (2016).
“And” between values parts separate entries of the source, which are not always exact repeats. Equal entries are not always repeated.

Assays:
Assay in all cases: radiometric filter-binding kinase assay, Kinase HotSpot
Details in all cases: compound 0.5 µM; ATP 10 µM
CAMK1G (human) = CAMK1G (human) (UniProt Q96NX5)
MAP4K4 (human) = MAP4K4 (human) (UniProt O95819)
FGFR3 (human) = FGFR3 (human) (UniProt P22607)
CSNK1G3 (human) = CSNK1G3 (human) (UniProt Q9Y6M4)
ZAP70 (human) = ZAP70 (human) (UniProt P43403)
CAMK2D (human) = CAMK2D (human) (UniProt Q13557)
CAMK2D (human), sequence (Q13557 whole entry, looked up): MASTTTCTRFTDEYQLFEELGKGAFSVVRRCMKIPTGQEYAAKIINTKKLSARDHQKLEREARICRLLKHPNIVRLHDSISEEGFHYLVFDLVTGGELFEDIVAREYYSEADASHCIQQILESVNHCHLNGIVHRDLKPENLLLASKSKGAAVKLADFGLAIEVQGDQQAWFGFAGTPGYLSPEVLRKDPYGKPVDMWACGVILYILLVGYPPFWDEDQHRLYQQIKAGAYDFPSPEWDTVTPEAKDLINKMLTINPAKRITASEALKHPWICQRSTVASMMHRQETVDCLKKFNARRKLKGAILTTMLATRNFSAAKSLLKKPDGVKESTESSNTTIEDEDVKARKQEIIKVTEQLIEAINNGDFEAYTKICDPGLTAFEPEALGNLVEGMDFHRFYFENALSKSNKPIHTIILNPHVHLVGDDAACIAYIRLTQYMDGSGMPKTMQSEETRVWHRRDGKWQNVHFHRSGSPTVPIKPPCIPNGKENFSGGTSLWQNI

EPHA6 (human) = EPHA6 (human) (UniProt Q9UF33)
STK16 (human) = STK16 (human) (UniProt O75716)
CAMK1D (human) = CAMK1D (human) (UniProt Q8IU85)
CAMK2B (human) = CAMK2B (human) (UniProt Q13554)
MAPK12 (human) = MAPK12 (human) (UniProt P53778)
MAPK12 (human), sequence (P53778 whole entry, looked up): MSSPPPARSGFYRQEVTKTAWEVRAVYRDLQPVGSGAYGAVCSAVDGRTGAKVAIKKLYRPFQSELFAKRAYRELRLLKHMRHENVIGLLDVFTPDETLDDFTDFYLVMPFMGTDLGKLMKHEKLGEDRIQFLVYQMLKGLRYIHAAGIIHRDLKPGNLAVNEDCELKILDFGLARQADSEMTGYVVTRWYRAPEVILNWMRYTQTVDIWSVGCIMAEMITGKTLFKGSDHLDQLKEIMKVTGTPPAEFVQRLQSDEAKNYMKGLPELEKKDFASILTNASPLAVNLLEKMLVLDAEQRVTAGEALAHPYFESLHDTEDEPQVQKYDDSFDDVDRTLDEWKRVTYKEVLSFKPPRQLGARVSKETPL

HIPK2 (human) = HIPK2 (human) (UniProt Q9H2X6)
PDGFRB (human) = PDGFRB (human) (UniProt P09619)
WEE1 (human) = WEE1 (human) (UniProt P30291)
FYN (human) = FYN (human) (UniProt P06241)
FYN (human), sequence (P06241 whole entry, looked up): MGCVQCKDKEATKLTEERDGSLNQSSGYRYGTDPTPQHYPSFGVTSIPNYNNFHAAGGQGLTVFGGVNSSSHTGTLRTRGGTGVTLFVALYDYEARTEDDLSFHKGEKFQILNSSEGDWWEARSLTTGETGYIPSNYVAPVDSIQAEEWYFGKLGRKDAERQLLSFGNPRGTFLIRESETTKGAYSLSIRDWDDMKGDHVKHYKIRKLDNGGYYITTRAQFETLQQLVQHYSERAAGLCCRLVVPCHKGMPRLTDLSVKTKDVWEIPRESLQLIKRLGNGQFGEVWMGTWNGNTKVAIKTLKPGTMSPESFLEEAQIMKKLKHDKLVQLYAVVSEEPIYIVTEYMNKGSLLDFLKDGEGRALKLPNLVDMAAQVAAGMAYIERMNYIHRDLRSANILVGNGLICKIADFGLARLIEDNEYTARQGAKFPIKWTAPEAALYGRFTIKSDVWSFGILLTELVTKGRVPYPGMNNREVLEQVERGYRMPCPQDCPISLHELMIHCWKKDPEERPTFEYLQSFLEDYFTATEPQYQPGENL

CDC42BPB (human) = CDC42BPB (human) (UniProt Q9Y5S2)
TSSK1B (human) = TSSK1B (human) (UniProt Q9BXA7)
TTK (human) = TTK (human) (UniProt P33981)
TBK1 (human) = TBK1 (human) (UniProt Q9UHD2)
MAPK14 (human) = MAPK14 (human) (UniProt Q16539)
CSNK1D (human) = CSNK1D (human) (UniProt P48730)
STK24 (human) = STK24 (human) (UniProt Q9Y6E0)
EPHB3 (human) = EPHB3 (human) (UniProt P54753)
STK4 (human) = STK4 (human) (UniProt Q13043)
CSNK1G1 (human) = CSNK1G1 (human) (UniProt Q9HCP0)
NTRK1 (human) = NTRK1 (human) (UniProt P04629)
LYN (human) = LYN (human) (UniProt P07948)
LYN (human), sequence (P07948 whole entry, looked up): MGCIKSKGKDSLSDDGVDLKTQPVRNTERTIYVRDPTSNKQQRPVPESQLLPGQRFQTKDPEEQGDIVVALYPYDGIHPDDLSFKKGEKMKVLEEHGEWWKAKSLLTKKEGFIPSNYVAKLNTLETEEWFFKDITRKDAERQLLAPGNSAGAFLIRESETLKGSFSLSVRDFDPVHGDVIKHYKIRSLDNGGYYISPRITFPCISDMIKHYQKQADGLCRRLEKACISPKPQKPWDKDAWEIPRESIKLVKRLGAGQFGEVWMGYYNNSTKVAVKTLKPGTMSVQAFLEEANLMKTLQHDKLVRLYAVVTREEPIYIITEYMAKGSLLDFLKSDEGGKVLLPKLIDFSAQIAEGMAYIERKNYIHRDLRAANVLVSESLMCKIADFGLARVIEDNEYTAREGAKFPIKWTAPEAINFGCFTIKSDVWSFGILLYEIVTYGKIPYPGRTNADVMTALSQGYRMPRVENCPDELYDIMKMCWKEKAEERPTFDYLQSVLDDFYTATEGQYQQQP

IKBKB (human) = IKBKB (human) (UniProt O14920)
RPS6KB2 (human) = RPS6KB2 (human) (UniProt Q9UBS0)
EPHA8 (human) = EPHA8 (human) (UniProt P29322)
MAP3K3 (human) = MAP3K3 (human) (UniProt Q99759)
CDK2 CCNA2 (human) = CDK2 CCNA2 (human) (UniProt P24941+P20248)
EPHA5 (human) = EPHA5 (human) (UniProt P54756)
MYLK (human) = MYLK (human) (UniProt Q15746)
MYLK (human), sequence (Q15746 whole entry, looked up): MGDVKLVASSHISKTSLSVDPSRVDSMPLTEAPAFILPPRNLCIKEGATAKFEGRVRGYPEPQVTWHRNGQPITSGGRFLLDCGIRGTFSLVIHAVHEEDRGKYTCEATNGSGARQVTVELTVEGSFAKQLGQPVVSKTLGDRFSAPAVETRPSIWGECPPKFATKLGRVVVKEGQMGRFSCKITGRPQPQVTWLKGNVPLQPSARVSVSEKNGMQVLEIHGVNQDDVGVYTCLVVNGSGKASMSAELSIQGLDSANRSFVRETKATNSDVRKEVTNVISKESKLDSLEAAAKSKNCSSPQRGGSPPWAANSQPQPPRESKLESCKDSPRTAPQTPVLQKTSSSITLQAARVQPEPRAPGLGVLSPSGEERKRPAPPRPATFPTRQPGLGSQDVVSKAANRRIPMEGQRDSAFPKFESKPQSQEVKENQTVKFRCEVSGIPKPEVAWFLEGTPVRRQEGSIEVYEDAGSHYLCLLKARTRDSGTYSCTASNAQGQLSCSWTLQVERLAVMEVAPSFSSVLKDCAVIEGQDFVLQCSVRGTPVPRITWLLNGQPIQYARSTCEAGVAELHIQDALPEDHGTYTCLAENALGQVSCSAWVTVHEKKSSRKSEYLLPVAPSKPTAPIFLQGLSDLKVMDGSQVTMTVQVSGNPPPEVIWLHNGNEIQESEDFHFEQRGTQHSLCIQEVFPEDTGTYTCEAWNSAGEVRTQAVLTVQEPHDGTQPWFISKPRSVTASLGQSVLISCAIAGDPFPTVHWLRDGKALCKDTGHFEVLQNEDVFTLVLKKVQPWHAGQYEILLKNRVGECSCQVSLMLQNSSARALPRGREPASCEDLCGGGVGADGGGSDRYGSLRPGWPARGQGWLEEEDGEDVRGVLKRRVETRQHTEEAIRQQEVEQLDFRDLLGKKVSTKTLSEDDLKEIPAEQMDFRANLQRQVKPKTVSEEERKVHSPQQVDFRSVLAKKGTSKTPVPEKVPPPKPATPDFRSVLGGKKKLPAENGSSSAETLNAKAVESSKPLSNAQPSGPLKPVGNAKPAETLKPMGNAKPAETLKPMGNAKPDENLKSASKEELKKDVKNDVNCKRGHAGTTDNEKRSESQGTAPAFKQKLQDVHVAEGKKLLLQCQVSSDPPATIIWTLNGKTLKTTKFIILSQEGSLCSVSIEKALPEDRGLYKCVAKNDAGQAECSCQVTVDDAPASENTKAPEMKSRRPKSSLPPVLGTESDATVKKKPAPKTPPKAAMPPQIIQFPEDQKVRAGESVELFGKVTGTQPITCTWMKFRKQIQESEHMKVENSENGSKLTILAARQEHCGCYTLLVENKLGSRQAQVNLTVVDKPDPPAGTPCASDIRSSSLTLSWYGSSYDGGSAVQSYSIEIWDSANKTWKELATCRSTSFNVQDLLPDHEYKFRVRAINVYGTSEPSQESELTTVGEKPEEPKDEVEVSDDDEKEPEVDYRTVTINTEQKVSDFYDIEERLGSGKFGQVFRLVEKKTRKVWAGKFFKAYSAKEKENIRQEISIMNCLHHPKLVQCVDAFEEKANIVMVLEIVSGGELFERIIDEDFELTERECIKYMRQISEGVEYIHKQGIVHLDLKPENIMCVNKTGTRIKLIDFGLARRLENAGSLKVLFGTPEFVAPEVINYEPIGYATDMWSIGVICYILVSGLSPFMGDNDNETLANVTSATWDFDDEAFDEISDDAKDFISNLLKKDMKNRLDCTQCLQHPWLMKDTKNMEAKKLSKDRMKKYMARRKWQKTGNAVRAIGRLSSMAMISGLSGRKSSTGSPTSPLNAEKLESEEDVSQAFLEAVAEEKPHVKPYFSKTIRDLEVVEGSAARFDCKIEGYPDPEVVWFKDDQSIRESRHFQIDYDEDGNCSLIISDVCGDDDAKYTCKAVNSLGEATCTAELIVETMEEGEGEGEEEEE

MAPKAPK5 (human) = MAPKAPK5 (human) (UniProt Q8IW41)
MAPKAPK5 (human), sequence (Q8IW41 whole entry, looked up): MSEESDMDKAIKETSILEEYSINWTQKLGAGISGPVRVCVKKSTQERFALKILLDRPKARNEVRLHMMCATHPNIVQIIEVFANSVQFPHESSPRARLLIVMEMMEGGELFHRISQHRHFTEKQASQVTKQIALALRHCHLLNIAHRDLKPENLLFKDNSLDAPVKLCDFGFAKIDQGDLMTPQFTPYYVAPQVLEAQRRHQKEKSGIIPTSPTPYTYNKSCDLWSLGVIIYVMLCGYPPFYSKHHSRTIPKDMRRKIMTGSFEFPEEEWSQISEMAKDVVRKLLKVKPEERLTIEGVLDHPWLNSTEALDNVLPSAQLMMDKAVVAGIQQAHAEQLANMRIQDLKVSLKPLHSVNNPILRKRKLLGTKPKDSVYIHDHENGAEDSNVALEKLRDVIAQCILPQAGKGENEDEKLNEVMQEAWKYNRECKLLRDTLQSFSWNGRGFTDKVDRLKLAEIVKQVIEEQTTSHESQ

FER (human) = FER (human) (UniProt P16591)
FES (human) = FES (human) (UniProt P07332)
IGF1R (human) = IGF1R (human) (UniProt P08069)
PLK3 (human) = PLK3 (human) (UniProt Q9H4B4)
CDK2 CCNE1 (human) = CDK2 CCNE1 (human) (UniProt P24941+P24864)
SGK3 (human) = SGK3 (human) (UniProt Q96BR1)
RAF1 (human) = RAF1 (human) (UniProt P04049)
RAF1 (human), sequence (P04049 whole entry, looked up): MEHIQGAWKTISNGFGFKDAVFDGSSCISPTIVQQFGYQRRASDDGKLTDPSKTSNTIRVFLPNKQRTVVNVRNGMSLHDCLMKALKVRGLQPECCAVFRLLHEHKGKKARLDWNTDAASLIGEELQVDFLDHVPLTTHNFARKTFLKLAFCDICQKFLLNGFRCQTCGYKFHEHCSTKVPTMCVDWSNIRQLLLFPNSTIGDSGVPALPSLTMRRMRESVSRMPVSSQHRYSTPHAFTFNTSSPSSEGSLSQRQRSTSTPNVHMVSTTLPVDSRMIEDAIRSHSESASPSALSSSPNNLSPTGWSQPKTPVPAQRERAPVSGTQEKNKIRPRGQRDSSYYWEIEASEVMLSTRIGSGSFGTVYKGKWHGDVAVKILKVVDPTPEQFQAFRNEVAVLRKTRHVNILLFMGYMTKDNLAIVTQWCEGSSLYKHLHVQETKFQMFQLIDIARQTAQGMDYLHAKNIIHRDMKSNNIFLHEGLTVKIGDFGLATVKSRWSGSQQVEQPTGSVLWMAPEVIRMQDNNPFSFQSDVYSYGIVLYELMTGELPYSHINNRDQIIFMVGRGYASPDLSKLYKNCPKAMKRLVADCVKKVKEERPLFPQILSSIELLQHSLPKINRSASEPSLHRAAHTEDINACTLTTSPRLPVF

CO[C@H]1CC2CC[C@@H](C)[C@@](O)(O2)C(=O)C(=O)N2CCCC[C@H]2C(=O)OC([C@H](C)C[C@@H]2CC[C@@H](O)[C@H](OC)C2)CC(=O)[C@H](C)/C=C(\C)[C@@H](O)[C@@H](OC)C(=O)[C@H](C)C[C@H](C)/C=C/C=C/C=C/1C (some centres not stated)
residual activity (CAMK1G (human)): 93%
residual activity (MAP4K4 (human)): 87.7%
residual activity (FGFR3 (human)): 102%
residual activity (CSNK1G3 (human)): 108%
residual activity (ZAP70 (human)): 99.2%
residual activity (CAMK2D (human)): 96.1%
residual activity (EPHA6 (human)): 99%
residual activity (STK16 (human)): 112%
residual activity (CAMK1D (human)): 105%
residual activity (CAMK2B (human)): 99.2%
residual activity (MAPK12 (human)): 107%
residual activity (HIPK2 (human)): 88%
residual activity (PDGFRB (human)): 108%
residual activity (WEE1 (human)): 93.3%
residual activity (FYN (human)): 109%
residual activity (CDC42BPB (human)): 103%
residual activity (TSSK1B (human)): 103%
residual activity (TTK (human)): 117%
residual activity (TBK1 (human)): 94.7%
residual activity (MAPK14 (human)): 99.1%
residual activity (CSNK1D (human)): 110%
residual activity (STK24 (human)): 93.5%
residual activity (EPHB3 (human)): 103%
residual activity (STK4 (human)): 106%
residual activity (CSNK1G1 (human)): 96%
residual activity (NTRK1 (human)): 98.4%
residual activity (LYN (human)): 100% and 105%
residual activity (IKBKB (human)): 109%
residual activity (RPS6KB2 (human)): 95.4%
residual activity (EPHA8 (human)): 92.7%
residual activity (MAP3K3 (human)): 101%
residual activity (CDK2 CCNA2 (human)): 101%
residual activity (EPHA5 (human)): 94.7%
residual activity (MYLK (human)): 102%
residual activity (MAPKAPK5 (human)): 98%
residual activity (FER (human)): 92%
residual activity (FES (human)): 108%
residual activity (IGF1R (human)): 112%
residual activity (PLK3 (human)): 96.2%
residual activity (CDK2 CCNE1 (human)): 91.3%
residual activity (SGK3 (human)): 98.1%
residual activity (RAF1 (human)): 97.2%
